Source: article PMC11874007, “Switching Roles—Exploring Concentration-Dependent Agonistic versus Antagonistic Behavior of Integrin Ligands” (Journal of Medicinal Chemistry, 2025)

Key:
[1] = tested on: M21 cells; assay: Cell adhesion in the presence of ligand, M21 cells; assay type: cell-based; details: 1 μM
Experimental: (§1) Figure 10 (A) Effect of integrin ligands on cancer cell migration. […] Microscopical measurements of wound gaps were taken directly after setting the wound scratch and then after 9, 24, 48, and 72 h, respectively. Wound scratch assays were repeated at least three times. The extent of wound gap closure [%]/cell coverage was calculated by a python script utilizing Canny’s Edge Detection algorithm as described under Materials and summarized in the corresponding histograms (see also Scheme S5 in the Supporting Information). (B) Adhesion of M21, OV-MZ-6, and HN cells in the presence of the respective integrin targeting ligand at low (1 nM) and high (1 μM) concentrations. […] Depicted are typical microscopical images of the respective cell monolayers.

[2] = tested on: OV-MZ-6 cells; assay: Cell adhesion in the presence of ligand, OV-MZ-6 cells; assay type: cell-based; details: 1 μM, 48 h
Experimental: as §1

[3] = tested on: FAK, p-FAK, p44/42erk-1/2 in αvβ6+ HN cells; assay: Western blot of FAK and p44/42erk-1/2 expression and activation, HN cells; assay type: cell-based
Experimental: Since agonistic ligand performance requires integrin activation and signaling, by Western blot analysis, we studied whether the different ligands alter the expression levels and activation states of FAK and p44/42^(erk-1/2). For this, the respective target integrin-expressing tumor cell types were incubated with the corresponding subtype-selective ligand at a concentration of 1 μM for 24 h (Figure 8). […] Signal intensities of FAK and p44/42^(erk-1/2) expression and activation (p-FAK and p-p44/42^(erk-1/2)) on Western blots were evaluated by densitometry. Data are depicted as GAPDH-normalized fluorescence signal intensities as n-fold, by setting values obtained for the respective untreated cells to “1”. […] MAPK p44/42^(erk-1/2) expression was approximately 2.2-fold augmented, p44/42^(erk-1/2) by approximately 2.5-fold. It also raised activation of p-FAK and p-p44/42^(erk-1/2) by approximately 2.2-fold and 3.1-fold, respectively, in α5β1+ OV-MZ-6 cells. […] Additionally, it raised FAK (approximately 1.7-fold) and p-p44/42^(erk-1/2) (approximately 2.4-fold) in α5β1+ OV-MZ-6 cells.
Figure 8 Effects of ligands on cellular expression and activation of integrin-related signaling molecules FAK and p44/42^(erk-1/2). […] Signal intensities for FAK and p-FAK, respectively, were evaluated by use of the Bio-Rad Imager Gel Doc XR+ and a ChemiDoc XRS+ Systems and the software Image Lab. Shown are typical representative Western blot images and the corresponding histograms depicting GAPDH-normalized signal intensities as n-fold by setting the values obtained for untreated cells to “1” (drawn as black line). For each cell line, cutouts of identical gels are depicted.
In order to capture early and transient changes in signaling activation following ligand treatment, we next reduced the observation periods to 5, 30, or 60 min and assessed FAK expression and activation. […] Depicted are typical Western blot images and the corresponding densitometrical evaluations of GAPDH-normalized signal intensities as n-fold, by setting that of the respective untreated cell type to “1” (Figure 9). […]

[4] = tested on: αvβ6+ HN cells; assay: Wound scratch cell migration assay, HN cells; assay type: cell-based; details: at either concentration (1 nM, 1 μM)
Experimental: As a biological readout for integrin signaling, we analyzed ligand effects on cell adhesion and migration by wound scratch assays (Figure 10A,B). […] Microscopical images were taken directly after wounding the cell monolayers and then after 9, 24, 48, and 72 h, respectively.
Figure 10 (A) Effect of integrin ligands on cancer cell migration. […] Microscopical measurements of wound gaps were taken directly after setting the wound scratch and then after 9, 24, 48, and 72 h, respectively. Wound scratch assays were repeated at least three times. The extent of wound gap closure [%]/cell coverage was calculated by a python script utilizing Canny’s Edge Detection algorithm as described under Materials and summarized in the corresponding histograms (see also Scheme S5 in the Supporting Information). (B) Adhesion of M21, OV-MZ-6, and HN cells in the presence of the respective integrin targeting ligand at low (1 nM) and high (1 μM) concentrations. […]
The assays were performed according to a modified protocol as previously published.[94] […] The smoothened images were then filtered by a Sobel kernel[98] and the magnitude and direction of the intensity gradient of the images calculated. […] The resulting images were then segmented and binarized by use of a grid filter and analyzed with respect to cell-covered area relative to the start image of each series.

[5] = target: T1, human αvβ6-integrin (Homo sapiens, UniProt P06756+P18564); details: previously published values; cited from earlier work
T1 construct: purchased R&D 3817-AV-050
T1 sequence (P06756 31-992 limits assumed): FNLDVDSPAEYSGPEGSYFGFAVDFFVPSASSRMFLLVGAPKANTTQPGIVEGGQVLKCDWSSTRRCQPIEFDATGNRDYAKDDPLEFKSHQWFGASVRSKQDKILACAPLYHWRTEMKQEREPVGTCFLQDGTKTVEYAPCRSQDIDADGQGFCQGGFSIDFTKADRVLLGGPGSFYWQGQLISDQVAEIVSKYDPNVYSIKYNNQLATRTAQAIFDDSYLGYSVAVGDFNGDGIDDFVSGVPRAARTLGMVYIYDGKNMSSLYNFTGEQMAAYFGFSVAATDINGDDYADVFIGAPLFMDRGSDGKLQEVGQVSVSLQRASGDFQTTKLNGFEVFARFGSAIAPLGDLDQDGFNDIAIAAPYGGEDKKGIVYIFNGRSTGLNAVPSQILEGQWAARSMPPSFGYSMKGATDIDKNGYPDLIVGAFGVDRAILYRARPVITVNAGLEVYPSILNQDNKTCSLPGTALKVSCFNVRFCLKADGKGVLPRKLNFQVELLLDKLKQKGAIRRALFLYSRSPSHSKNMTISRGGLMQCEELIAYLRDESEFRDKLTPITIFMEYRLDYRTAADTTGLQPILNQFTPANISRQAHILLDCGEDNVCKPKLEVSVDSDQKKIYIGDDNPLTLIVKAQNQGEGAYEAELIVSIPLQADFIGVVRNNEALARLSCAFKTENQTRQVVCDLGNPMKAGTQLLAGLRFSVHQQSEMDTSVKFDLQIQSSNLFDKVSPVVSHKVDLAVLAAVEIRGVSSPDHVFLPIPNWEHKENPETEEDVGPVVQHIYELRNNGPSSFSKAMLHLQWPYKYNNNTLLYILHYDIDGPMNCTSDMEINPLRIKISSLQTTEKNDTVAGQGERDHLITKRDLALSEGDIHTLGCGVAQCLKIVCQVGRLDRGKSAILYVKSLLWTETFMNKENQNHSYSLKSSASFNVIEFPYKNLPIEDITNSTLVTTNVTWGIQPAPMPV
T1 sequence (P18564 22-707 limits assumed): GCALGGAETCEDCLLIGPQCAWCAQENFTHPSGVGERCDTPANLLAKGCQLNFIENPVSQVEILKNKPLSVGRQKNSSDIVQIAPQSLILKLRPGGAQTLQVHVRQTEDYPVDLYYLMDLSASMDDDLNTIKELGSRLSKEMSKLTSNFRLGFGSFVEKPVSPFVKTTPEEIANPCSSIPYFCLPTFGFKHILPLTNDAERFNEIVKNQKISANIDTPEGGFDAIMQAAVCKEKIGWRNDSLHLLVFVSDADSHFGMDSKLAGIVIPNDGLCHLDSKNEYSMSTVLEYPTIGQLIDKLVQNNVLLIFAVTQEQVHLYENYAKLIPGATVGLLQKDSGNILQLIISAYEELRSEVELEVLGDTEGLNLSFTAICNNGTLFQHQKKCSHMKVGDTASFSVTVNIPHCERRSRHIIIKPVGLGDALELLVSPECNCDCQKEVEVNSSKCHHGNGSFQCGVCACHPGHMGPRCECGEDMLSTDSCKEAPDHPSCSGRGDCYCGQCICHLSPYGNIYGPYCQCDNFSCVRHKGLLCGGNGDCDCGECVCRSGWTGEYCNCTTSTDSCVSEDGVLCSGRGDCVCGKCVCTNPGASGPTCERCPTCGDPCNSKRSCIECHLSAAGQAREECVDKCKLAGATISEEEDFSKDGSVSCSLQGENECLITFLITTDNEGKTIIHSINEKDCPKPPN

Which “Effect on cell adhesion / attachment” value [1] does the source give for `C#CCCC(=O)NCCCOc1ccc(C(=O)N[C@H](CC(=O)O)Cc2ccc(OCCCNc3cc(OC)ccn3)cc2)cc1` [L1, (S)-4-(4-(3-((4-Methoxypyridin-2-yl)amino)propoxy)phenyl)-3-(4-(3-(pent-4-ynamido)propoxy)benzamido)butanoic Acid] here?
The value was “performed as inhibitors of cell attachment”.

With `C#CCCC(=O)NCCCOc1cc(C)c(C(=O)N[C@@H](CNC(=O)CNC(=O)c2cccc(NC(=N)N)c2)C(=O)O)c(C)c1` [L5, (S)-2-(2,6-Dimethyl-4-(3-(pent-4-ynamido)propoxy)benzamido)-3-(2-(3-guanidinobenzamido)acetamido)propanoic Acid] as the compound, how does the “Effect on cell adhesion / attachment” value [2] read?
Its value is “performed as inhibitors of cell attachment”.

Which results are given for c(FRGDLAFp(NMe)K) [L3]?
Modulation of signaling molecules (FAK, p44/42erk-1/2) ([3]; 1 μM, 24 h, in either cell type): not effective in modulating signaling molecules; p-FAK, elevated levels within 30 min ([3]; HN cells, 1 nM): approximately five; FAK expression versus untreated cells ([3]; HN cells, both concentrations (1 nM, 1 μM), within 60 min): slight increase; Effect on cell migration [4]: neither antagonistic nor agonistic effects; IC50 [5]: 0.28 ± 0.019 nM
